According to the NIST ThermoML archive (doi:10.1016/j.jct.2012.04.011):
± gives the expanded uncertainty stated by the source.

Assays:
[1] = 298.15 K; 101.33 kPa; Liquid; Vibrating tube method
[2] = refractive index (Na D-line) (dimensionless); details: 298.2 K; 101.33 kPa; Liquid; Standard Abbe refractometry
[3] = relative permittivity at zero frequency (dimensionless); details: 298.2 K; 101.33 kPa; Liquid; Parallel plate capacitor

For C1CCCCC1 [cyclohexane], the mass density [1] was 773.78 ± 0.24 kg/m3, the refractive index [2] was 1.4234 ± 0.0007 and the “relative permittivity at zero frequency” value [3] was 2.02 ± 0.01.

With Cc1ccccc1 [toluene] the mass density [1] was 862.02 ± 0.24 kg/m3, the refractive index [2] was 1.4938 ± 0.0007 and the “relative permittivity at zero frequency” value [3] was 2.38 ± 0.01.

With CC1CCCCC1 [methylcyclohexane] the mass density [1] was 764.92 ± 0.24 kg/m3, the refractive index [2] was 1.4198 ± 0.0007 and the “relative permittivity at zero frequency” value [3] was 2.01 ± 0.01.

In the case of O [water], the refractive index [2] is reported as 1.3325 ± 0.0007.
